{
  "source": "patent US9109008B2",
  "about": "“Tubulysin compounds, methods of making and use” (priority 2013, dated 2015)",
  "origin": "cited, not measured here",
  "tested_on": "cancer cell lines",
  "conditions": "Kaur et al. 2006",
  "data": [
    {"smiles": "CC[C@H](C)[C@H](NC(=O)[C@H]1CCCCN1C)C(=O)N(COC(=O)CC(C)C)[C@H](C[C@@H](OC(C)=O)c1nc(C(=O)N[C@@H](Cc2ccc(O)cc2)C[C@H](C)C(=O)O)cs1)C(C)C", "note": "[tubulysin A]", "values": [
      {"measurement": "antiproliferative potency compared with other antimitotic agents", "result": "more potent than other antimitotic agents such as paclitaxel and vinblastine"}
    ]}
  ]
}
